Source: PubChem BioAssay AID2060490 (Molecular Pharmacology Branch, DTP, NCI, 2025)

Test system: 885512-296-R-J2-PDC complex spheroid viability
Test: Anticancer human tumor 885512-296-R-J2-PDC patient-derived breast carcinoma cell line growth inhibition [GQUAD]
Settings: for IC50: curve of first compound; for viability, T/C: stronger effect = lower value
In short: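 Tumor cells were grown as complex spheroids with HUVEC endothelial cells and mesenchymal stem cells as stroma. G-quadruplex stabilizers were combined with targeted agents over half-log dilutions from near the clinical Cmax, or from 10 microM.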

[1] = second compound 0.0316 µM, first compound 0.0316 µM
[2] = second compound 0.0316 µM, first compound 0.316 µM
[3] = second compound 0.1 µM, first compound 0.0316 µM
[4] = second compound 0.1 µM, first compound 0.316 µM
[5] = second compound 0.316 µM, first compound 0.0316 µM
[6] = second compound 0.316 µM, first compound 0.316 µM
[7] = second compound 1 µM, first compound 0.0316 µM
[8] = second compound 1 µM, first compound 0.316 µM
[9] = second compound 3.16 µM, first compound 0.0316 µM
[10] = second compound 3.16 µM, first compound 0.316 µM
[11] = second compound 10 µM, first compound 0.0316 µM
[12] = second compound 10 µM, first compound 0.316 µM
[13] = second compound 0.0316 µM, first compound 0.1 µM
[14] = second compound 0.0316 µM, first compound 1 µM
[15] = second compound 0.0316 µM, first compound 3.16 µM
[16] = second compound 0.0316 µM, first compound 10 µM
[17] = second compound 0.1 µM, first compound 0.1 µM
[18] = second compound 0.1 µM, first compound 1 µM
[19] = second compound 0.1 µM, first compound 3.16 µM
[20] = second compound 0.1 µM, first compound 10 µM
[21] = second compound 0.316 µM, first compound 0.1 µM
[22] = second compound 0.316 µM, first compound 1 µM
[23] = second compound 0.316 µM, first compound 3.16 µM
[24] = second compound 0.316 µM, first compound 10 µM
[25] = second compound 1 µM, first compound 0.1 µM
[26] = second compound 1 µM, first compound 1 µM
[27] = second compound 1 µM, first compound 3.16 µM
[28] = second compound 1 µM, first compound 10 µM
[29] = second compound 3.16 µM, first compound 0.1 µM
[30] = second compound 3.16 µM, first compound 1 µM
[31] = second compound 3.16 µM, first compound 3.16 µM
[32] = second compound 3.16 µM, first compound 10 µM
[33] = second compound 10 µM, first compound 0.1 µM
[34] = second compound 10 µM, first compound 1 µM
[35] = second compound 10 µM, first compound 3.16 µM
[36] = second compound 10 µM, first compound 10 µM
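Note: spheroids exposed to the compounds for one week.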
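Throughout, for viability, T/C: percent of tumor spheroid viability relative to DMSO vehicle control wells.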

CC[C@@]1(O)C(=O)OCc2c1cc1n(c2=O)Cc2cc3c(CN(C)C)c(O)ccc3nc2-1 + Cc1cnc(CNC(=O)c2c(=O)c3ccc(N4CCCN(C)CC4)nc3n3c2sc2ccccc23)cn1
IC50 (second compound 0.0316 µM): 13.9 nM
IC50 (second compound 0.1 µM): 3.86 nM
IC50 (second compound 0.316 µM): < 0.999 nM
IC50 (second compound 1 µM): < 0.999 nM
IC50 (second compound 3.16 µM): < 0.999 nM
IC50 (second compound 10 µM): < 0.999 nM
viability, T/C (second compound 0.0316 µM, first compound 0.000999 µM): 82.1%
viability, T/C (second compound 0.0316 µM, first compound 0.00316 µM): 77.9%
viability, T/C (second compound 0.0316 µM, first compound 0.00999 µM): 62.1%
viability, T/C [1]: 20.5%
viability, T/C (second compound 0.0316 µM, first compound 0.0999 µM): 15.2%
viability, T/C [2]: 6.65%
viability, T/C (second compound 0.1 µM, first compound 0.000999 µM): 63.8%
viability, T/C (second compound 0.1 µM, first compound 0.00316 µM): 52.1%
viability, T/C (second compound 0.1 µM, first compound 0.00999 µM): 37.4%
viability, T/C [3]: 20.1%
viability, T/C (second compound 0.1 µM, first compound 0.0999 µM): 13.4%
viability, T/C [4]: 9.1%
viability, T/C (second compound 0.316 µM, first compound 0.000999 µM): 30%
viability, T/C (second compound 0.316 µM, first compound 0.00316 µM): 19.1%
viability, T/C (second compound 0.316 µM, first compound 0.00999 µM): 21.3%
viability, T/C [5]: 16.1%
viability, T/C (second compound 0.316 µM, first compound 0.0999 µM): 16.9%
viability, T/C [6]: 12%
viability, T/C (second compound 1 µM, first compound 0.000999 µM): 21.8%
viability, T/C (second compound 1 µM, first compound 0.00316 µM): 22.8%
viability, T/C (second compound 1 µM, first compound 0.00999 µM): 18.4%
viability, T/C [7]: 20.1%
viability, T/C (second compound 1 µM, first compound 0.0999 µM): 15.2%
viability, T/C [8]: 12%
viability, T/C (second compound 3.16 µM, first compound 0.000999 µM): 29.7%
viability, T/C (second compound 3.16 µM, first compound 0.00316 µM): 24%
viability, T/C (second compound 3.16 µM, first compound 0.00999 µM): 24.8%
viability, T/C [9]: 20.2%
viability, T/C (second compound 3.16 µM, first compound 0.0999 µM): 12.8%
viability, T/C [10]: 8.5%
viability, T/C (second compound 10 µM, first compound 0.000999 µM): 0.07%
viability, T/C (second compound 10 µM, first compound 0.00316 µM): 0.13%
viability, T/C (second compound 10 µM, first compound 0.00999 µM): 0.24%
viability, T/C [11]: 0.16%
viability, T/C (second compound 10 µM, first compound 0.0999 µM): 0.17%
viability, T/C [12]: 0.14%

COc1cc(C2c3cc4c(cc3C(OC3OC5COC(C)OC5C(O)C3O)C3COC(=O)C23)OCO4)cc(OC)c1O (stereo not drawn) + Cc1cnc(CNC(=O)c2c(=O)c3ccc(N4CCCN(C)CC4)nc3n3c2sc2ccccc23)cn1
IC50 (second compound 0.0316 µM): 318 nM
IC50 (second compound 0.1 µM): 187 nM
IC50 (second compound 0.316 µM): < 31.6 nM
IC50 (second compound 1 µM): < 31.6 nM
IC50 (second compound 3.16 µM): < 31.6 nM
IC50 (second compound 10 µM): < 31.6 nM
viability, T/C [1]: 80.8%
viability, T/C [13]: 81%
viability, T/C [2]: 48%
viability, T/C [14]: 22.8%
viability, T/C [15]: 13.4%
viability, T/C [16]: 10.5%
viability, T/C [3]: 57.2%
viability, T/C [17]: 55.8%
viability, T/C [4]: 45%
viability, T/C [18]: 28%
viability, T/C [19]: 13.7%
viability, T/C [20]: 11.4%
viability, T/C [5]: 26%
viability, T/C [21]: 34.3%
viability, T/C [6]: 23.3%
viability, T/C [22]: 24.1%
viability, T/C [23]: 16.4%
viability, T/C [24]: 8.65%
viability, T/C [7]: 29%
viability, T/C [25]: 21.8%
viability, T/C [8]: 23.6%
viability, T/C [26]: 21.1%
viability, T/C [27]: 21.3%
viability, T/C [28]: 14.2%
viability, T/C [9]: 34%
viability, T/C [29]: 28.4%
viability, T/C [10]: 29.6%
viability, T/C [30]: 23.5%
viability, T/C [31]: 22.3%
viability, T/C [32]: 17.7%
viability, T/C [11]: 0.09%
viability, T/C [33]: 0.17%
viability, T/C [12]: 0.18%
viability, T/C [34]: 0.15%
viability, T/C [35]: 0.16%
viability, T/C [36]: 0.18%

COc1cccc2c1C(=O)c1c(O)c3c(c(O)c1C2=O)CC(O)(C(=O)CO)CC3OC1CC(N)C(O)C(C)O1 (stereo not drawn) + Cc1cnc(CNC(=O)c2c(=O)c3ccc(N4CCCN(C)CC4)nc3n3c2sc2ccccc23)cn1
IC50 (second compound 0.0316 µM): 60.1 nM
IC50 (second compound 0.1 µM): < 31.6 nM
IC50 (second compound 0.316 µM): < 31.6 nM
IC50 (second compound 1 µM): < 31.6 nM
IC50 (second compound 3.16 µM): < 31.6 nM
IC50 (second compound 10 µM): < 31.6 nM
viability, T/C [1]: 71%
viability, T/C [13]: 30.1%
viability, T/C [2]: 21.9%
viability, T/C [14]: 4.72%
viability, T/C [15]: 0.41%
viability, T/C [16]: 2.74%
viability, T/C [3]: 50.4%
viability, T/C [17]: 27.2%
viability, T/C [4]: 20.9%
viability, T/C [18]: 10.3%
viability, T/C [19]: 0.59%
viability, T/C [20]: 2.89%
viability, T/C [5]: 28.2%
viability, T/C [21]: 23.7%
viability, T/C [6]: 18.5%
viability, T/C [22]: 8.18%
viability, T/C [23]: 0.4%
viability, T/C [24]: 1.91%
viability, T/C [7]: 19.8%
viability, T/C [25]: 25.2%
viability, T/C [8]: 13.7%
viability, T/C [26]: 3.8%
viability, T/C [27]: 0.09%
viability, T/C [28]: 0.32%
viability, T/C [9]: 26.7%
viability, T/C [29]: 25.6%
viability, T/C [10]: 15.1%
viability, T/C [30]: 0.12%
viability, T/C [31]: 0.12%
viability, T/C [32]: 0.15%
viability, T/C [11]: 0.07%
viability, T/C [33]: 0.14%
viability, T/C [12]: 0.22%
viability, T/C [34]: 0.15%
viability, T/C [35]: 0.2%
viability, T/C [36]: 0.21%

Nc1ccn(C2OC(CO)C(O)C2(F)F)c(=O)n1 (stereo not drawn) + Cc1cnc(CNC(=O)c2c(=O)c3ccc(N4CCCN(C)CC4)nc3n3c2sc2ccccc23)cn1
IC50 (second compound 0.0316 µM): < 31.6 nM
IC50 (second compound 0.1 µM): < 31.6 nM
IC50 (second compound 0.316 µM): < 31.6 nM
IC50 (second compound 1 µM): < 31.6 nM
IC50 (second compound 3.16 µM): < 31.6 nM
IC50 (second compound 10 µM): < 31.6 nM
viability, T/C [1]: 11.4%
viability, T/C [13]: 3.66%
viability, T/C [2]: 4.41%
viability, T/C [14]: 3.92%
viability, T/C [15]: 3.56%
viability, T/C [16]: 4.33%
viability, T/C [3]: 8.53%
viability, T/C [17]: 4.24%
viability, T/C [4]: 3.88%
viability, T/C [18]: 5.21%
viability, T/C [19]: 4.05%
viability, T/C [20]: 3.9%
viability, T/C [5]: 8.35%
viability, T/C [21]: 8.14%
viability, T/C [6]: 5.18%
viability, T/C [22]: 2.76%
viability, T/C [23]: 5.29%
viability, T/C [24]: 4.05%
viability, T/C [7]: 9.41%
viability, T/C [25]: 7.02%
viability, T/C [8]: 3.55%
viability, T/C [26]: 3.31%
viability, T/C [27]: 4.27%
viability, T/C [28]: 3.59%
viability, T/C [9]: 4.08%
viability, T/C [29]: 0.41%
viability, T/C [10]: 0.15%
viability, T/C [30]: 0.1%
viability, T/C [31]: 0.12%
viability, T/C [32]: 0.14%
viability, T/C [11]: 0.09%
viability, T/C [33]: 0.15%
viability, T/C [12]: 0.14%
viability, T/C [34]: 0.11%
viability, T/C [35]: 0.15%
viability, T/C [36]: 0.16%
